Assay results: US20240225985A1, “BRIGHTENING COMPOSITIONS AND METHODS OF USE” (Alastin Skincare, Inc., priority 2021, published 2024)
Entries after “also recorded” stand apart in the source; their conditions may differ.

Key:
[1] = tested on: facial skin; assay: Clinical study, investigator assessment of tolerability (erythema, dryness, peeling); type: in vivo, human
Text: (§1) Participants underwent up to 8 study visits: screening, baseline, and 3 follow-up visits in the main study, and a 12-week extension study extended to participants at the week 12 follow up visit, which included an additional 3 follow-up visits to be conducted over 12 weeks: week 16, 20, and a final visit at week 24. At the initial screening visit, participants were consented prior to any study procedures. Medical/aesthetic history, concomitant medications, and study eligibility were collected and assessed. The following procedures were performed at Baseline: Investigator assessments, photography, Optical Coherence Tomography (OCT) imaging of the skin (only at select sites). […] Participants were asked to return to the office for follow-up visits at 4, 8, and 12 weeks. […] Participants randomized to the topical study product continued use of the product throughout the duration of the study, along with the study provided cleanser and sunscreen to apply to their facial skin as previously instructed.

[2] = tested on: facial skin; assay: Clinical study, participant assessment of tolerability (burning/stinging, tingling, itching); type: in vivo, human
Text: as §1

[3] = tested on: facial dyschromia and/or hyperpigmentation; assay: Clinical study, participant questionnaire; type: in vivo, human
Text: as §1

[4] = tested on: facial skin; settings: human, in vivo, 12 weeks
Text: Adverse events as assessed by investigators is an extremely important parameter for determining potential shortcomings of a product for treatment.

[5] = tested on: facial dyschromia and/or hyperpigmentation; assay: Clinical study, investigator assessment of facial skin severity; type: in vivo, human; settings: scale 0-9
Text: Forty-three (43) participants (male and female; skin types I-IV; mean age 49.2) with mild to severe facial dyschromia and/or hyperpigmentation on the face were enrolled. Participants provided consent and agreed to limit their sun exposure for the duration of the study. Participants were required to comply with the skincare regimen and return for follow-up visits. This study population was deemed a large enough sample size for safety and efficacy. Only eligible participants were selected to participate. Participants that were enrolled and completed the 3-month study for this protocol were eligible to participate in the 3-month extension study.
as §1
(§2) The products were supplied in a kit with a number and then dispensed according to the baseline grading of dyschromia.
As summarized in Table 15, investigator assessment of facial skin severity considered the overall appearance of dyschromia, skin tone (clarity and evenness), radiance, and skin texture, on the following scale: 0=none; 1-3=mild; 4-6=moderate; 7-9=severe.

[6] = tested on: facial dyschromia and/or hyperpigmentation; assay: Clinical study, investigator mMASI scoring; type: in vivo, human
Text: as §1, §2
Investigator mMASI scoring was performed using a modified MASI scoring method depicted in FIG. 13.

[7] = tested on: hTERT-immortalized dermal melanocytes; assay: Melanocyte assay, daily inspection of cell morphology; type: cell-based, human; settings: both concentrations of Table 11; five-day dosing period
Procedure: Once the melanocytes were 100% confluent in 6-well plates, the melanocyte growth media was removed and the melanocytes were treated with media containing the above compounds; duplicate wells for each compound/concentration listed above. The duplicate vehicle control wells were fed melanocyte growth media only or melanocyte growth media with DMSO (10 uL per 10 mL melanocyte growth media).
The cells were fed the appropriate media for the next 5 days. Each day, the cells were inspected for morphology.

[8] = tested on: keratinocytes; assay: Gene expression study (RNA sequencing) in keratinocytes; type: cell-based, human; settings: 24 hours of compound exposure
Procedure: (§3) Four cell types associated with pigmentation pathways—melanocytes, keratinocytes, fibroblasts and endothelial (HUVEC) cells—were analyzed for gene expression.
(§4) To simulate the UV stimulatory pigmentation pathway process, melanocytes were pre-treated with PGE2, a normal direct consequence of UV light exposure usually emanating from exposed keratinocytes. After the 48 hour attachment culture, these melanocytes were induced with 10 uM PGE2 in melanocyte media for 24 hrs. The four primary human adult dermal cell lines were cultured and plated in well plates in triplicate and then treated with 11 different compound treatments (plus DMSO control). After 48 hours of attachment culture, the remaining fibroblasts, HUVECs and keratinocytes were treated with the test compounds listed in Table 8.
(§5) After 24 hours of compound exposure, RNA lysate preparation was carried out and samples were shipped to MedGenome for RNA extraction, library construction and sequencing to 25M paired end 100 bp reads per sample. Library prep and sequencing was completed at MedGenome.

[9] = tested on: melanocytes; assay: In vitro melanocyte comparative analysis via absorbance readings (melanin production); type: cell-based; settings: for Absorbance 405 nm / Absorbance 490 nm / Absorbance 492 nm: 4 days, control = 0.0 row; for Regulation of melanogenesis (decreased absorption denoting decreased melanin formation): melanocytes, summary of Table 10
Procedure: Melanocytes were cultured in 6-well plates containing growth media. Once confluent, 2 concentrations of each of the 10 compounds were added to the cells in triplicate wells for 4 days. There were a total of eleven 6-well plates, one for each compound treatment and one for the vehicle control. Absorbance readings were taken on the lysates prepared for each well of the 6-well plates, normalizing for cells counts. The model was initially tested for accuracy and validated using hexapeptide-12 in view of strong gene expression results with melanocyte cell line in the first study—confirmation of decreased stimulation was obtained. Additional validation was carried out using MSH addition to media to confirm increased stimulation of melanin production. The following compounds used in this study are seen in Table 9.

[10] = tested on: endothelial (HUVEC) cells; assay: Gene expression study (RNA sequencing) in endothelial (HUVEC) cells; type: cell-based, human; settings: 24 hours of compound exposure
Procedure: as §3, §4, §5

[11] = change week 0 to week 12, N = 44 study product, N = 42 HQ4%
[12] = week 0 (baseline), N = 44 study product, N = 42 HQ4%
[13] = week 12, N = 44 study product, N = 42 HQ4%
[14] = higher concentration (Lactoferrin 1000, HEX-11 200, Phosphatidylserine 500, Silymarin 20, Sesamol 100, Tranexamic Acid 1000, HEX-12 4.9, ug/mL or ug/uL; Phytoene/Phytofluene 5.00%)
[15] = lower concentration (Lactoferrin 500, HEX-11 100, Phosphatidylserine 250, Silymarin 10, Sesamol 50, Tranexamic Acid 500, HEX-12 2.9, ug/mL or ug/uL; Phytoene/Phytofluene 2.50%)

Oc1ccc(O)cc1 [HQ 4%, Hydroquinone]
Dryness, percent of participants ([1]; Week 4): 13.6%
Erythema, percent of participants ([1]; Week 4): 23%
Peeling, percent of participants ([1]; Week 4): 13.6%
Dryness, percent of participants ([1]; Week 8): 14%
Erythema, percent of participants ([1]; Week 8): 14%
Peeling, number of participants and grade ([1]; Week 8): 1 mild
Peeling, percent of participants ([1]; Week 8): 4.7%
Dryness, number of participants and grade ([1]; Week 12): 0
Erythema, number of participants and grade ([1]; Week 12): 4 minimal
Erythema, percent of participants ([1]; Week 12): 19%
Peeling, number of participants and grade ([1]; Week 12): 0
Burning/Stinging, number of participants and grade ([2]; Week 4): 6 minimal
Burning/Stinging, percent of participants ([2]; Week 4): 27%
Itching, percent of participants ([2]; Week 4): 36%
Tingling, percent of participants ([2]; Week 4): 18%
Burning/Stinging, percent of participants ([2]; Week 8): 9.5%
Itching, number of participants and grade ([2]; Week 8): 1 minimal
Itching, percent of participants ([2]; Week 8): 4.7%
Tingling, number of participants and grade ([2]; Week 8): 1 mild
Tingling, percent of participants ([2]; Week 8): 4.7%
Burning/Stinging, number of participants and grade ([2]; Week 12): 2 minimal
Burning/Stinging, percent of participants ([2]; Week 12): 9.5%
Itching, percent of participants ([2]; Week 12): 9.5%
Tingling, number of participants and grade ([2]; Week 12): 1 minimal
Tingling, percent of participants ([2]; Week 12): 4.7%
participant-reported irritation versus the study product population ([2]; summary of Table 19): irritation is increased across all parameters
Improved the evenness of my skin tone, % Agree or Somewhat Agree ([3]; Week 4): 76.19%
Improved the overall appearance of my skin, % Agree or Somewhat Agree ([3]; Week 4): 76.19%
Lessened the appearance of the dark spots and discoloration on my skin, % Agree or Somewhat Agree ([3]; Week 4): 80.95%
Made me feel more confident in the way my skin looks, % Agree or Somewhat Agree ([3]; Week 4): 61.90%
Made my skin look brighter and more radiant, % Agree or Somewhat Agree ([3]; Week 4): 66.67%
Made my skin look healthier, % Agree or Somewhat Agree ([3]; Week 4): 61.90%
Made my skin look more youthful, % Agree or Somewhat Agree ([3]; Week 4): 42.86%
Improved the overall appearance of my skin, % Agree or Somewhat Agree ([3]; Week 8): 85.71%
Lessened the appearance of the dark spots and discoloration on my skin, % Agree or Somewhat Agree ([3]; Week 8): 80.95%
Made me feel more confident in the way my skin looks, % Agree or Somewhat Agree ([3]; Week 8): 61.90%
Made my skin look brighter and more radiant, % Agree or Somewhat Agree ([3]; Week 8): 66.67%
Made my skin look healthier, % Agree or Somewhat Agree ([3]; Week 8): 71.43%
Made my skin look more youthful, % Agree or Somewhat Agree ([3]; Week 8): 71.43%
Improved the evenness of my skin tone, % Agree or Somewhat Agree ([3]; Week 12): 85.71%
Improved the overall appearance of my skin, % Agree or Somewhat Agree ([3]; Week 12): 85.71%
Lessened the appearance of the dark spots and discoloration on my skin, % Agree or Somewhat Agree ([3]; Week 12): 76.19%
Made me feel more confident in the way my skin looks, % Agree or Somewhat Agree ([3]; Week 12): 61.90%
Made my skin look brighter and more radiant, % Agree or Somewhat Agree ([3]; Week 12): 90.48%
Made my skin look healthier, % Agree or Somewhat Agree ([3]; Week 12): 85.71%
Made my skin look more youthful, % Agree or Somewhat Agree ([3]; Week 12): 71.43%
Improved the evenness of my skin tone, % Agree or Somewhat Agree ([3]; Week &): 85.71%
adverse events, percent of population [4]: 23.8%
total number of adverse events reported [4]: 5
Dyschromia, investigator score, mean change ([5]; change week 0 to week 12): 0.9
Radiance, investigator score, mean change ([5]; change week 0 to week 12): 0.3
Skin tone, investigator score, mean change ([5]; change week 0 to week 12): 0.9
Texture, investigator score, mean change ([5]; change week 0 to week 12): 0
Dyschromia, investigator score, mean ([5]; week 0 (baseline)): 5.7
Radiance, investigator score, mean ([5]; week 0 (baseline)): 5
Skin tone, investigator score, mean ([5]; week 0 (baseline)): 5.5
Texture, investigator score, mean ([5]; week 0 (baseline)): 4.2
Dyschromia, investigator score, mean ([5]; week 12): 4.8
Radiance, investigator score, mean ([5]; week 12): 4.6
Skin tone, investigator score, mean ([5]; week 12): 4.7
Texture, investigator score, mean ([5]; week 12): 4.2
Left mMASI, mean ([6]; Week 12): 1.8
Left malar, mean ([6]; Week 12): 6
Right mMASI, mean ([6]; Week 12): 1.9
Right malar, mean ([6]; Week 12): 6.3
Total mMASI, mean ([6]; Week 12): 5.2
Left mMASI, mean change ([6]; change week 0 to week 12): 0.3
Left malar, mean change ([6]; change week 0 to week 12): 1.1
Right mMASI, mean change ([6]; change week 0 to week 12): 0.3
Right malar, mean change ([6]; change week 0 to week 12): 1.1
Total mMASI, mean change ([6]; change week 0 to week 12): 1
Combined right and left mMASI, mean change [6, 11]: 0.3
Combined right and left malar, mean change [6, 11]: 1.1
improvement in mMASI scoring at 12 weeks versus baseline ([6]; summary of Table 17): no such improvement
Left mMASI, mean ([6]; week 0 (baseline)): 2.2
Left malar, mean ([6]; week 0 (baseline)): 7.2
Right mMASI, mean ([6]; week 0 (baseline)): 2.2
Right malar, mean ([6]; week 0 (baseline)): 7.4
Total mMASI, mean ([6]; week 0 (baseline)): 6.1
Combined right and left mMASI, mean [6, 12]: 2.2
Combined right and left malar, mean [6, 12]: 7.3
Combined right and left mMASI, mean [6, 13]: 1.9
Combined right and left malar, mean [6, 13]: 6.2

C/C=C1/[C@H](O[C@@H]2O[C@H](CO)[C@@H](O)[C@H](O)[C@H]2O)OC=C(C(=O)OC)[C@H]1CC(=O)OCCc1ccc(O)c(O)c1 [Oleuropein]
melanocyte morphology / survival on daily inspection [7]: nearly all melanocytes were dead 72 hours post-initial dosing

Hexapeptide-11
melanogenesis gene activity in keratinocytes [8]: active ingredient in melanogenesis activity; also recorded: significant effects on melanogenesis activity
Absorbance 405 nm [9, 14]: 0.338
Absorbance 490 nm [9, 14]: 0.227
Absorbance 492 nm [9, 14]: 0.163
Absorbance 405 nm [9, 15]: 0.461
Absorbance 490 nm [9, 15]: 0.288
Absorbance 492 nm [9, 15]: 0.209
Regulation of melanogenesis (decreased absorption denoting decreased melanin formation) [9]: Regulation of melanogenesis was observed

Phosphatidylserine
activity on EDN1 and other melanogenic genes in HUVECs [10]: potent activity; also recorded: significant effects on melanogenesis activity
Absorbance 405 nm [9, 14]: 0.61
Absorbance 490 nm [9, 14]: 0.38
Absorbance 492 nm [9, 14]: 0.288
Absorbance 405 nm [9, 15]: 0.686
Absorbance 490 nm [9, 15]: 0.438
Absorbance 492 nm [9, 15]: 0.338
Regulation of melanogenesis (decreased absorption denoting decreased melanin formation) [9]: Regulation of melanogenesis was observed
